# “And” between values parts separate entries of the source, which are not always exact repeats. Identical values can stand only once. The source made the active and inactive calls.
# Experiments:
# cells [1] = type: functional, cell-based
# cells [2] = type: functional, cell-based; remark: listed apart in the source
# Protein skinhead-1 = target: T1, Protein skinhead-1 (Caenorhabditis elegans, UniProt P34707); type: functional
# T1 sequence (P34707 whole entry): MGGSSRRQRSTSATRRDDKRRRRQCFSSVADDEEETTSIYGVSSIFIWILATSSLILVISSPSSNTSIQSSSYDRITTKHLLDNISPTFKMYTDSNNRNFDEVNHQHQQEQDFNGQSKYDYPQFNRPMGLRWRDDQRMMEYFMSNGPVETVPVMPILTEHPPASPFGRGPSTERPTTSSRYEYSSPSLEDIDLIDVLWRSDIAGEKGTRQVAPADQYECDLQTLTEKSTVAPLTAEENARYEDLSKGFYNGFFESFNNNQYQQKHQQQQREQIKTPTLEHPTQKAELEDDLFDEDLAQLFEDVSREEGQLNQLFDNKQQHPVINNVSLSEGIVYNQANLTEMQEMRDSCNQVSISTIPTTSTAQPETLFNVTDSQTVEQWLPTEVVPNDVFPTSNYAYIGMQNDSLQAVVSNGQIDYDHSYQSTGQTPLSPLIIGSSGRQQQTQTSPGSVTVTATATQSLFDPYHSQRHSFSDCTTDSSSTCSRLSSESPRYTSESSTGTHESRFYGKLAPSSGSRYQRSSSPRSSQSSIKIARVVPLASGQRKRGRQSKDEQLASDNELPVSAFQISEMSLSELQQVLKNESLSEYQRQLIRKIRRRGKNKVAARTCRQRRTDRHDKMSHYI
# [3] = microbe, parasite or virus in culture; type: functional; conditions: Mycobacterium tuberculosis
# [4] = growth suppression of beta-catenin-knockout colon cells, dose response, cell-based, HCT116, human colon tumor (AID 1045); type: functional;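 note: HCT116 colon tumor cells with beta catenin knocked out; cells exposed to compound for 60 hours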
# [5] = growth suppression of PTEN-null colon cells, dose response, cell-based, HCT116 PTEN knockout (AID 1047); type: functional;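 note: HCT116 colon tumor cells with PTEN knocked out; cells exposed to compound for 60 hours before readout; potency for loss of cell viability measured by luminescence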
# Cytochrome P450 3A4 = Cytochrome P450 3A4 (Homo sapiens, UniProt P08684); conditions: Potency;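 note: confirmatory qHTS run detecting inhibitors and substrates of CYP3A4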
# [6] = Shn3 3'UTR reporter inhibitors, dose response, cell-based, Clone20 osteoblasts, firefly luciferase, cherry-picked (AID 624132); type: functional;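 note: firefly luciferase luminescence from reporter carrying the Shn3 3'UTR in osteoblasts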
# [7] = control 3'UTR Renilla luciferase suppression, dose response, counter-screen for Shn3 inhibitor project, cell-based, Clone20-Shn3RL, cherry-picked (AID 624133); type: functional
# [8] = HepG2 cell cytotoxicity, dose response, cytotoxicity control for Shn3 inhibitor project, CellTiter-Glo, cherry-picked (AID 624134); type: functional, cell-based
# cells [9] = type: functional
# [10] = inhibitors of HIV Env-driven cell fusion, dose response, cherry-pick (AID 652057); type: functional, cell-based
# [11] = inhibitors of clade B AD8 Env fusion, dose response, cell-based, cherry-pick (AID 652062); type: functional;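 note: luciferase signal from cell-cell fusion driven by HIV-1 clade B AD8 Env; potency is for inhibitors of fusion seen as a drop in luminescence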
# INS1 = test: beta cell apoptosis inhibitors, cytokine rescue, dose response, luminescence, retest (AID 449756); type: functional, cell-based; conditions: Rattus norvegicus;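 note: cell death triggered by IL-1 beta plus TNF-alpha plus IFN-gamma mixture; protective hits raise ATP signal compared with cytokine alone wells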
# [12] = target: T2, RNA-binding protein pos-1 (Caenorhabditis elegans, UniProt G5EF15); test: inhibitors of POS-1/mex-3 RNA binding, dose response, biochemical, fluorescence polarization (AID 1964);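 note: purified POS-1 fused to maltose binding protein made in E. coli; potency of compounds blocking POS-1 binding to fluorescent RNA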
# T2 sequence (G5EF15 whole entry): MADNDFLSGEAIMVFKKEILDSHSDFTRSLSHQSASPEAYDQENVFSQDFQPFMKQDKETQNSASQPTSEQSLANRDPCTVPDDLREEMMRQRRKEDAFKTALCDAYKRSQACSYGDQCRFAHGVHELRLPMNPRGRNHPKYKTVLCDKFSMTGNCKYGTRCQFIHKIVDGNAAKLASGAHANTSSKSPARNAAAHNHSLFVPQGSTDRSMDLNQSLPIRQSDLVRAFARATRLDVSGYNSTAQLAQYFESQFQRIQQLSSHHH
# [13] = target: T3, Zinc finger protein mex-5 (Caenorhabditis elegans, UniProt Q9XUB2); test: MEX-5/TCR-2 RNA interaction inhibitors, dose response, biochemical, C. elegans, fluorescence polarization (AID 1960)
# T3 sequence (Q9XUB2 whole entry): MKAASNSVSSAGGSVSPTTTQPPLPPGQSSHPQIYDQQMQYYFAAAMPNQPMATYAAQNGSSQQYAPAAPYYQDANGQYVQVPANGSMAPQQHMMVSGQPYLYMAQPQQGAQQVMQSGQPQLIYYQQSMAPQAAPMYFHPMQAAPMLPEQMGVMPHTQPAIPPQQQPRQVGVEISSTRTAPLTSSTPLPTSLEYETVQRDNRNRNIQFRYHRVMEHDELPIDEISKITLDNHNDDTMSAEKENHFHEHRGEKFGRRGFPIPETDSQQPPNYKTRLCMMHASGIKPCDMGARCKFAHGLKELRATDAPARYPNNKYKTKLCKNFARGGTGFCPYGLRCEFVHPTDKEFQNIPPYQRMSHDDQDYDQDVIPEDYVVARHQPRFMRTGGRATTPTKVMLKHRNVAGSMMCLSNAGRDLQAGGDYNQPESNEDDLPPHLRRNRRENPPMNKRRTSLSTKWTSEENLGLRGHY
# [14] = Luminescence Cell-Based Dose Retest to Confirm Inhibitors of Cancer Stem Cells. [Related pubchem assays (depositor defined):AID2717, AID2721]; type: functional; conditions: Homo sapiens
# Streptokinase A = target: T4, Streptokinase A (Streptococcus pyogenes serotype M1, UniProt P10520); test: S. pyogenes streptokinase expression inhibitors, potency, dose response, plasminogen activation absorbance, OD405 (AID 1914); type: functional, Streptococcus pyogenes M1 GAS;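 note: secreted streptokinase activity via plasminogen activation per viability signal from cell pellet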
# T4 sequence (P10520 whole entry): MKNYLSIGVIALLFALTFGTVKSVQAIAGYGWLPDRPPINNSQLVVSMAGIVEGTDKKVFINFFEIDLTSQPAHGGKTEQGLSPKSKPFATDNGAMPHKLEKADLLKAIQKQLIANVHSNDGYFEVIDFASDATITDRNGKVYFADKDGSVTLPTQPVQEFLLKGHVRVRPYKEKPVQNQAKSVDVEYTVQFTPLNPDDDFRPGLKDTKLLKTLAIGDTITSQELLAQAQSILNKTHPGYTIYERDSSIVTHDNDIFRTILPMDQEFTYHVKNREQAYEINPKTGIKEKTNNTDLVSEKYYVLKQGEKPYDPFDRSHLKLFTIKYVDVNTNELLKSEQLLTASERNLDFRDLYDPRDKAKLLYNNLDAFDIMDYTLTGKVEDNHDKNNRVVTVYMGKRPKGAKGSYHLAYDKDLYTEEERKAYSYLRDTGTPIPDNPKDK
# Streptococcus = test: Group A Streptococcus viability loss, dose response, counter-screen for streptokinase expression inhibitor project, luminescence, BacTiterGlo (AID 1915); type: functional, organism-based;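 note: potency for reduction of bacterial viability or growth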
# [15] = system: Streptococcus sp. 'group A'; test: growth inhibition of control SK(-) GAS strain, dose response, counter-screen for streptokinase expression inhibitor project, luminescence, kanamycin, BacTiterGlo, confirmation (AID 1900); type: functional, organism-based
# Paired box protein Pax-8 = Paired box protein Pax-8 (Homo sapiens, UniProt Q06710); test: inhibitors of PAX8-driven TPO luciferase reporter, dose response, RMG-I cells, cherry-pick (AID 687027); type: functional, cell-based;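 note: luciferase reporter driven by Pax8 target thyroperoxidase promoter measured by SteadyGlo luminescence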
# Sequence of Paired box protein Pax-8 (Q06710 whole entry): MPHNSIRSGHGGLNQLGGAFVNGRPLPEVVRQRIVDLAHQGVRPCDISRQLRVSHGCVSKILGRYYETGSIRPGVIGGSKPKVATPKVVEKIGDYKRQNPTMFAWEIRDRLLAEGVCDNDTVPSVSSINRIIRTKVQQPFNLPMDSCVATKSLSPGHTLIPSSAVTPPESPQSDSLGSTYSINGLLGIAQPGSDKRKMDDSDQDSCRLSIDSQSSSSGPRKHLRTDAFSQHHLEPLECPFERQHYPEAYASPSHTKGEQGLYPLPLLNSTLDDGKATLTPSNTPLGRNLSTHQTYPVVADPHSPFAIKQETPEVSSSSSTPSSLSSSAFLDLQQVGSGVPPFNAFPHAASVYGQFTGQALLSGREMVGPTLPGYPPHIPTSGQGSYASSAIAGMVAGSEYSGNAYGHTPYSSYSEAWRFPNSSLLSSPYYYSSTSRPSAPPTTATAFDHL
# Sequence of Cytochrome P450 3A4 (P08684 whole entry): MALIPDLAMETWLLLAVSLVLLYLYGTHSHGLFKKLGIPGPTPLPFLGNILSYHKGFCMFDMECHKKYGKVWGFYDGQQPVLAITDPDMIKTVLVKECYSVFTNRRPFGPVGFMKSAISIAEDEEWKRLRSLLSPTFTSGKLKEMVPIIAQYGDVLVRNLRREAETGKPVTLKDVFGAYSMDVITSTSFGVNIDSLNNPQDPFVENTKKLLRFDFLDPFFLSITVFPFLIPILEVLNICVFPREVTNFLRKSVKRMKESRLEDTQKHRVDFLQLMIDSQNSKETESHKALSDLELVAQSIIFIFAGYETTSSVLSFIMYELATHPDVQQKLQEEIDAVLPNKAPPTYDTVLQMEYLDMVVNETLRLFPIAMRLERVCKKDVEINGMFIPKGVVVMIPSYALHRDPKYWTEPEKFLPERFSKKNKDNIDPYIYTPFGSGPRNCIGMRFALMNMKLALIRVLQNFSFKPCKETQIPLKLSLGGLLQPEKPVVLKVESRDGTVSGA
smiles,measurement,setting,value
O=C(NCCCN1CCOCC1)c1cc(-c2ccccc2F)no1,EC50,cells [1],> 350 µM (not active)
same,EC50,cells [2],113 µM (active)
O=C(O)C(Oc1ccc2ccccc2c1)c1ccccc1 (stereo not given),IC50,Protein skinhead-1,> 100 µM (inactive)
COc1ccc(C(=O)Nc2cccc(OC(=O)c3ccc(C)c(C)c3)c2)cc1,IC50,Protein skinhead-1,> 100 µM (inactive)
c1ccc(Nc2nc(N3CCCCC3)nc(N3CCNCC3)n2)cc1,CC50,[3],23.5 µM (active)
same,EC50,[4],14.3 µM (active)
same,EC50,[5],12.7 µM (active)
CCC(=O)Nc1cccc(C(=O)/C=C/c2cc(Br)ccc2OC)c1,EC50,[4],0.933 µM (active)
same,EC50,[5],1.3 µM (active)
CCc1ccc(C(=O)Nc2ccc3nc(C)ccc3c2)cc1,IC50,Protein skinhead-1,10.1 µM (active)
CN(C)c1ccc(C(=N)c2ccc(N(C)C)cc2)cc1,AC50,Cytochrome P450 3A4,15.8 µM (inconclusive)
Cc1cc(Nc2ccccc2)cc(=O)n1C,EC50,cells [1],> 350 µM (not active)
same,EC50,cells [2],> 350 µM (not active)
CCOC(=O)c1cc2c(N)c(C(=O)c3cc(C#N)c(SC)nc3C)sc2nc1C,EC50,[4],8.35 µM (active)
same,EC50,[5],8.22 µM (active)
CC(C)c1ccc(NC(=O)Nc2nc(C(N)COCc3ccccc3)cs2)cc1 (stereo not given),AC50,[6],5.99 µM (active)
same,AC50,[7],10.8 µM (active)
same,AC50,[8],18.1 µM (active)
COc1ccc(CC(N)c2csc(NC(=O)NC(c3ccccc3)c3ccccc3)n2)cc1 (stereo not given),AC50,[6],6.4 µM (active)
same,AC50,[7],19.3 µM (active)
same,AC50,[8],21.1 µM (active)
CCc1nc2oc3ccccc3c(=O)c2c(=O)n1-c1ccccc1,IC50,Protein skinhead-1,> 100 µM (inactive)
O=C(CCSc1nnc(-c2ccccc2)o1)N1CCOCC1,IC50,cells [9],20.7 µM (active)
COc1ccc(NC(=O)Nc2ccc3c(c2)C(=O)N([C@H](C)CO)C[C@H](C)[C@H](CN(C)S(=O)(=O)c2ccc(OC)cc2)O3)cc1,AC50,[10],2.08 µM (active)
same,AC50,[11],4.67 µM (active)
COc1ccccc1/C=C/C1=CC2(C)CC1(C)C(c1ccccc1OC)CC2=O (stereo not given),AC50,Cytochrome P450 3A4,3.16 µM (inconclusive)
O=C(NC1CC2CCC1C2)C1COc2ccccc2O1 (stereo not given),IC50,cells [9],> 50 µM (active)
CC(C)(C)Sc1ccc2nc3c(n2c1)CCCC3,IC50,cells [9],29 µM (active)
same,AC50,INS1,14.7 µM (active)
Cc1cccc(NC(=O)CSc2nc3ccccc3c(=O)n2C)c1C,AC50,[6],2.98 µM (active)
same,AC50,[7],15.2 µM (active)
same,AC50,[8],39 µM (active)
Fc1ccc(-c2csc(-c3ccncc3)n2)cc1,IC50,Protein skinhead-1,10.5 µM (active)
Cc1cc(O)cc(=O)o1,AC50,Cytochrome P450 3A4,39.8 µM (inconclusive)
CC1(OC(=O)c2cccs2)C(=O)C=C2C=C(C3CC3)OC=C2C1=O (stereo not given),EC50,[12],42.3 µM (active)
same,EC50,cells [1],> 350 µM (not active)
same,EC50,cells [2],> 350 µM (not active)
same,EC50,[13],33 µM (active)
Cc1nn(Cc2ccccc2)c(C)c1C(=O)OCC(=O)c1cc(C)n(CC(F)(F)F)c1C,CC50,[3],> 40 µM (active)
same,AC50,[14],4.47 µM (active)
Clc1ccc(SCc2cc(-c3ccc(Cl)cc3)on2)cc1,IC50,Protein skinhead-1,> 100 µM (inactive)
CCCn1c(-c2ccc(F)cc2)nc2c(N3CCC(N(C)C)C3)nc(C)nc21 (stereo not given),AC50,Cytochrome P450 3A4,15.8 µM (inconclusive)
Cc1nc(NC2CCCCC2)c2nc(-c3ccccc3)n(CCN(C)C)c2n1,AC50,Cytochrome P450 3A4,25.1 µM (inconclusive)
CN=C(S)N=Nc1c(O)[nH]c2ccc(C(C)C)cc12,EC50,[4],17.6 µM (active)
same,EC50,[5],22.4 µM (active)
O=C(NCc1ccc(Cl)cc1)C1CCN(c2nnc(N3CCCC3=O)s2)CC1,IC50,Protein skinhead-1,> 100 µM (inactive)
O=C(NNc1c(F)c(F)cc(F)c1F)c1cc2ccccc2oc1=O,IC50,cells [9],48 µM (active)
Cc1c(C(=O)N2CCCCC2)c(S(=O)(=O)NCCc2ccc(Cl)cc2)c(C)n1C,EC50,cells [1],> 350 µM (not active)
same,EC50,cells [2],> 350 µM (not active)
Cc1ccc(C)c(-c2nnc(NC(=O)COc3ccccc3)o2)c1,EC50,Streptokinase A,> 150 µM (not active)
same,EC50,Streptococcus,23.1 µM (active)
same,IC50,cells [9],5.98 µM (active)
same,EC50,[15],1.18 µM (active)
O=c1c(O)c(-c2cccs2)oc2ccccc12,EC50,Streptokinase A,> 150 µM (not active)
same,EC50,Streptococcus,> 150 µM (not active)
same,CC50,[3],> 40 µM (active)
same,EC50,[15],3.69 µM (active)
c1csc(-c2ccc3ccccc3n2)c1,IC50,Protein skinhead-1,35.1 µM (active)
COc1ccc(COC(=O)CCNC(=O)c2ccc(Cl)cc2)cc1,IC50,cells [9],> 50 µM (active)
CC1(C)[C@@H](O)CC[C@]2(C)[C@H]3C(=O)C=C4[C@@H]5C[C@@](C)(C(=O)O)CC[C@]5(C)CC[C@@]4(C)[C@]3(C)CC[C@@H]12 [ENOXOLONE],AC50,Cytochrome P450 3A4,15.8 µM (inconclusive)
Cc1cccc(/C=N/NC(=O)c2ccc3c(c2)OCCO3)c1O,EC50,Streptococcus,6.82 µM (active)
same,EC50,[15],3.05 µM (active)
same,EC50,cells [1],6.39 µM (active)
same,EC50,cells [2],66.1 µM (active)
same,AC50,INS1,1.8 µM (active)
CC(C)n1c(NCCc2ccccc2)nc2c1c(=O)n(C)c(=O)n2C,AC50,[10],21.2 µM (active)
same,AC50,[11],17.9 µM (active)
CCOc1ccc(NC(=O)Nc2cc(OCC(F)(F)F)cc(OCC(F)(F)F)c2)cc1,EC50,[4],19.1 µM (active)
same,AC50,Paired box protein Pax-8,8.08 µM (active)
same,EC50,[5],16.9 µM (active)
Cc1cc(NC(=O)C2CC(=O)N(c3cccc(C)c3C)C2)no1 (stereo not given),EC50,cells [1],> 350 µM (not active)
same,EC50,cells [2],> 350 µM (not active)
Cc1ccc(C)c(SCC(=O)OCC(=O)N2CC(C)OC(C)C2)c1 (stereo not given),EC50,cells [1],> 350 µM (not active)
same,EC50,cells [2],> 350 µM (not active)
Cc1ccc(NC(=O)Cn2cc(S(=O)(=O)c3ccc(C)cc3)c(=O)c3cc(F)ccc32)cc1,EC50,[4],9.08 µM (active)
same,EC50,[5],10.9 µM (active)
COC(=O)C1=C(C)N(Cc2ccccc2)[C@]23O[C@](C(=O)OC)(C(=O)N2C1c1ccccc1)C1C(=O)N(C)C(=O)C13 (stereo not given in full),AC50,Cytochrome P450 3A4,2.51 µM (inconclusive) and 3.16 µM (inconclusive)
CC(=O)Oc1cc(OC(C)=O)c2c(=O)cc(-c3ccc(OC(C)=O)c(OC(C)=O)c3)oc2c1,AC50,Cytochrome P450 3A4,0.794 µM (inconclusive)
Nc1c(C(=O)Nc2cccc(Cl)c2Cl)sc2nc(-c3cccnc3)ccc12,EC50,[4],11 µM (active)
same,EC50,[5],5.65 µM (active)

# — ChEMBL document CHEMBL1201862, “PubChem BioAssay data set” (2004)
